Laboratory results reported in patent publication US5250562A, “Stilbene derivatives” (Hoffmann-La Roche Inc., priority 1988, dated 1993).

Test system: chemically induced mammary tumours
Test: activity against chemically induced (oral administration of dimethylbenzanthracene) mammary tumours in rats
Assay type: in vivo
Settings: for Increase or decrease in the average number of tumours per rat: control group +242; for Increase or decrease in the average tumour volume per rat in mm^3: control group +714
Text: The biological activity of the compounds in accordance with the invention can be determined e.g. using the test procedures described in German Offenlegungsschrift 3 715 955.

## C/C(=C\c1ccc(OCCN2CCOCC2)cc1)c1ccc2c(c1)C(C)(C)CCC2(C)C [4-[2-[p-[(E)-2-(5,6,7,8-tetrahydro-5,5,8,8-tetramethyl-2-naphthyl)propenyl]phenoxy]ethyl]morpholine]
50 mg/kg/day p.o.
  Rats with tumours: 100 % of controls
  Increase or decrease in the average number of tumours per rat: +91
  Increase or decrease in the average tumour volume per rat in mm^3: +550 mm^3
100 mg/kg/day p.o.
  Rats with tumours: 50 % of controls
  Increase or decrease in the average number of tumours per rat: -73
  Increase or decrease in the average tumour volume per rat in mm^3: -77 mm^3
200 mg/kg/day p.o.
  Rats with tumours: 10 % of controls
  Increase or decrease in the average number of tumours per rat: -96
  Increase or decrease in the average tumour volume per rat in mm^3: -99 mm^3
